Measured values from patent US9067932B2, “Pyrazolopyridine kinase inhibitors” (Vertex Pharmaceuticals Incorporated, priority 2010, dated 2015).
Read-outs that look alike come from different tables or passages of the source.

Key:
Type in all cases: biochemical
PKC delta kinase = PKC delta kinase (Homo sapiens, UniProt Q05655); assay: PKC delta coupled-enzyme (NADH consumption) kinase assay; settings: 46 nM PKC delta, 150 μM ATP, 30° C., initial rate at 340 nm
Protocol: (§1) An assay buffer solution was prepared which consisted of 100 mM HEPES (pH 7.5), 10 mM MgCl2, 25 mM NaCl, 0.1 mM EDTA and 0.01% Brij. […] To 16 μL of this enzyme buffer, in a 384 well plate, was added 1 μL of VRT stock solution in DMSO. […] The enzyme reaction was initiated by the addition of 16 μL stock ATP solution prepared in assay buffer to a final assay concentration of 150 μM. Initial rate data was determined from the rate of change of absorbance at 340 nm (corresponding to stoichiometric consumption of NADH) using a Molecular Devices Spectramax plate reader (Sunnyvale, Calif.) over 15 mins at 30° C. For each Ki determination 12 data points covering the VRT concentration range of 0-20 μM were obtained in duplicate (DMSO stocks were prepared from an initial 10 mM VRT stock with subsequent 1:2 serial dilutions). Ki values were calculated from initial rate data by non-linear regression using the Prism software package (Prism 4.0a, Graphpad Software, San Diego, Calif.).

PKC theta kinase = PKC theta kinase (Homo sapiens, UniProt Q04759); assay: PKC theta coupled-enzyme (NADH consumption) kinase assay; settings: 18 nM PKC theta, 240 μM ATP, 30° C., initial rate at 340 nm
Chain of PKC theta kinase (Q04759 whole entry): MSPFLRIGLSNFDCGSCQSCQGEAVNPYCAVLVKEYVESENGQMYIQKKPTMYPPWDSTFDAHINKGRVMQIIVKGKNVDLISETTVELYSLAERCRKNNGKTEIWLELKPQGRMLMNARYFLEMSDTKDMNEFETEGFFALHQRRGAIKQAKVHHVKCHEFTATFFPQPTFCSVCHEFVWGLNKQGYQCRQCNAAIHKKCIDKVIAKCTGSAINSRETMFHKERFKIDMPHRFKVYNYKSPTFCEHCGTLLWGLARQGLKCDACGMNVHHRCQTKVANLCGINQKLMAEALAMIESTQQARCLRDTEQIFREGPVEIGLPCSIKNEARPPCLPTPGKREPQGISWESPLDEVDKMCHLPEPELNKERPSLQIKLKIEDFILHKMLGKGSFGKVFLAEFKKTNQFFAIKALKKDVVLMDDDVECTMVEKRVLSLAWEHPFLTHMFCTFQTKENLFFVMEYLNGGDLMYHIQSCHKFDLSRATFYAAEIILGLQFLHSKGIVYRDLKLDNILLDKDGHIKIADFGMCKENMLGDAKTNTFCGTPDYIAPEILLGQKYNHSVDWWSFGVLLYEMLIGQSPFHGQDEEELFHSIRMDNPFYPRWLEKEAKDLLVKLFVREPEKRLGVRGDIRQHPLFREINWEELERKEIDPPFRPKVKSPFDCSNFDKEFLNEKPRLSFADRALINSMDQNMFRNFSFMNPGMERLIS
Protocol: as §1, with “To 60” for “To 16”, “added 2” for “added 1”, “of 5” for “of 16”, “of 240” for “of 150”

PKC alpha kinase = PKC alpha kinase (Homo sapiens, UniProt P17252); assay: PKC alpha coupled-enzyme (NADH consumption) kinase assay; settings: 4.5 nM PKC alpha, 130 μM ATP, 100 μM CaCl2, 30° C.
Protocol: An assay buffer solution was prepared which consisted of 100 mM HEPES (pH 7.5), 10 mM MgCl2, 25 mM NaCl, 0.1 mM EDTA, 100 μM CaCl2 and 0.01% Brij. An enzyme buffer containing reagents to final assay concentrations of 0.002% Triton X-100, 100 μg/mL Phosphatidylserine, 20 μg/mL Diacylglycerol, 360 μM NADH, 3 mM phosphoenolpyruvate, 70 μg/mL pyruvate kinase, 24 μg/mL lactate dehydrogenase, 2 mM DTT, 150 μM substrate peptide ([…] SEQ ID NO. 1) and 4.5 nM PKC alpha kinase was prepared in assay buffer. To 16 μL of this enzyme buffer, in a 384 well plate, was added 1 μL of VRT stock solution in DMSO. The mixture was allowed to equilibrate for 10 mins at 30° C. The enzyme reaction was initiated by the addition of 16 μL stock ATP solution prepared in assay buffer to a final assay concentration of 130 μM. Initial rate data was determined from the rate of change of absorbance at 340 nm (corresponding to stoichiometric consumption of NADH) using a Molecular Devices Spectramax plate reader (Sunnyvale, Calif.) over 15 mins at 30° C. For each Ki determination 12 data points covering the VRT concentration range of 0-20 μM were obtained in duplicate (DMSO stocks were prepared from an initial 10 mM VRT stock with subsequent 1:2 serial dilutions). Ki values were calculated from initial rate data by non-linear regression using the Prism software package (Prism 4.0a, Graphpad Software, San Diego, Calif.).

Chain of PKC delta kinase (Q05655 whole entry): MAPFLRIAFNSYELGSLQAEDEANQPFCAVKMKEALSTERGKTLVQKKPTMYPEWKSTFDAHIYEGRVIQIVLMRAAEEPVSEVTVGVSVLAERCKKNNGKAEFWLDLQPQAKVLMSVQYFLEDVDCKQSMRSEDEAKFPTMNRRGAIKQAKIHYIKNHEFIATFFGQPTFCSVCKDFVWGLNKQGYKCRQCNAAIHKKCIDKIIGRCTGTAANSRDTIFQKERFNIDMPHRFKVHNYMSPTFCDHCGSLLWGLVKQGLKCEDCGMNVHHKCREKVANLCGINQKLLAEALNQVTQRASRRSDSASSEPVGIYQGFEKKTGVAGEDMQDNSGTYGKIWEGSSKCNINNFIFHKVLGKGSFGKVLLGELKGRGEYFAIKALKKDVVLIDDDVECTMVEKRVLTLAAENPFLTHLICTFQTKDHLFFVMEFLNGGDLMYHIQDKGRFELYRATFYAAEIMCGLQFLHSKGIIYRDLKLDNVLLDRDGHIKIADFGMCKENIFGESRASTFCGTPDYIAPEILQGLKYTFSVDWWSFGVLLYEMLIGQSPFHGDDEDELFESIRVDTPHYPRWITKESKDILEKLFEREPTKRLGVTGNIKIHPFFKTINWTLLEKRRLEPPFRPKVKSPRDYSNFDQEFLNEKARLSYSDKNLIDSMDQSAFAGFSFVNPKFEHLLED

| Ki (PKC delta kinase) | Ki (PKC theta kinase; read-out: Ki PKC theta) | Ki (PKC alpha kinase; read-out: Ki PKC alpha) | SMILES | Ki (PKC theta kinase; Ki PKC theta) | Ki (PKC alpha kinase; Ki PKC alpha) |
| --- | --- | --- | --- | --- | --- |
| < 500 nM | < 50 nM | < 2800 nM | CC(C)[C@](C)(O)[C@@H]1CN(c2nc(-c3n[nH]c4ncccc34)c(F)cc2Cl)CCN1 [Compound 38] | – | – |
| < 500 nM | < 50 nM | < 2800 nM | CC(C)C(N)[C@H]1CCN(c2nc(-c3n[nH]c4ncccc34)c(F)cc2C#N)C1 (stereo partly shown) [Compound 37] | – | – |
| < 10 nM | < 1 nM | < 2800 nM | CC(C)(F)C(C)(O)C1CN(c2nc(-c3n[nH]c4ncccc34)c(F)cc2F)CCN1 (stereo not shown) [Compound 11] | – | – |
| > 1250 nM | < 50 nM | > 1250 nM | CC(C)[C@@](C)(O)[C@@H]1CN(c2nc(-c3n[nH]c4ncccc34)c(C#N)cc2F)CCN1 [Compound 43] | – | – |
| < 50 nM | < 1 nM | < 500 nM | CC(C)[C@@](C)(O)[C@@H]1CN(c2nc(-c3n[nH]c4ncccc34)c(F)cc2Cl)CCN1 [Compound 9, (R)-2-((S)-4-(3-chloro-5-fluoro-6-(1H-pyrazolo[3,4-b]pyridin-3-yl)pyridin-2-yl)piperazin-2-yl)-3-methylbutan-2-ol] | – | – |
| < 500 nM | < 1 nM | > 1250 nM | CC(O)(C1CC1)C1CN(c2nc(-c3n[nH]c4ncccc34)c(F)cc2F)CCN1 (stereo not shown) [Compound 4] | – | – |
| < 500 nM | < 50 nM | < 2800 nM | CC(C)C(N)C1CCN(c2nc(-c3n[nH]c4ncccc34)c(F)cc2F)C1 (stereo not shown) [Compound 22] | – | – |
| < 50 nM | < 1 nM | < 500 nM | CC(C)C(N)[C@H]1CCN(c2nc(-c3n[nH]c4ncccc34)c(F)cc2F)C1 (stereo partly shown) [Compound 28] | – | – |
| < 10 nM | < 1 nM | < 500 nM | CC(C)(C)C(O)C1CN(c2nc(-c3n[nH]c4ncccc34)c(F)cc2Cl)CCN1 (stereo not shown) [Compound 26] | – | – |
| < 500 nM | < 50 nM | < 2800 nM | CC(C)C(O)C1CN(c2nc(-c3n[nH]c4ncccc34)c(F)cc2Cl)CCN1 (stereo not shown) [Compound 21] | – | – |
| – | < 500 nM | – | CC(C)[C@@](C)(O)C1CN(c2nc(-c3n[nH]c4ncccc34)c(C#N)cc2F)CCN1 (stereo partly shown) [Compound 35] | – | – |
| < 10 nM | < 1 nM | < 500 nM | CC(C)[C@@](C)(O)[C@@H]1CN(c2nc(-c3n[nH]c4ncccc34)c(F)cc2O)CCN1 [Compound 32] | – | – |
| < 500 nM | < 50 nM | > 1250 nM | CC(C)C(N)[C@H]1CCN(c2nc(-c3n[nH]c4ncccc34)c(F)cc2Cl)C1 (stereo partly shown) [Compound 24] | – | – |
| < 500 nM | < 50 nM | > 1250 nM | COCC(C)(O)C1CN(c2nc(-c3n[nH]c4ncccc34)c(F)cc2F)CCN1 (stereo not shown) [Compound 16] | – | – |
| < 50 nM | < 1 nM | < 500 nM | CC(O)(CC(F)(F)F)C1CN(c2nc(-c3n[nH]c4ncccc34)c(F)cc2F)CCN1 (stereo not shown) [Compound 15] | – | – |
| < 500 nM | < 50 nM | > 1250 nM | COCC(C)(O)C1CN(c2nc(-c3n[nH]c4ncccc34)c(F)cc2Cl)CCN1 (stereo not shown) [Compound 33] | – | – |
| – | – | < 2800 nM | COCC(C)(O)C1CN(c2nc(-c3n[nH]c4ncccc34)c(F)cc2F)CCN1 (stereo not shown) [Compound 17] | – | – |
| < 50 nM | < 1 nM | < 500 nM | CC(C)C(O)C1CN(c2nc(-c3n[nH]c4ncccc34)c(F)cc2Cl)CCN1 (stereo not shown) [Compound 20] | – | – |
| > 1250 nM | < 50 nM | > 1250 nM | CC(C)[C@@](C)(O)C1CN(c2nc(-c3n[nH]c4ncccc34)c(C#N)cc2F)CCN1 (stereo partly shown) [Compound 34] | – | – |

| Ki (PKC delta kinase) | Ki (PKC theta kinase; read-out: Ki PKC theta) | Ki (PKC alpha kinase; read-out: Ki PKC alpha) | SMILES | Ki (PKC theta kinase; Ki PKC theta) | Ki (PKC alpha kinase; Ki PKC alpha) |
| --- | --- | --- | --- | --- | --- |
| < 500 nM | < 1 nM | < 2800 nM | CC(O)(C1CN(c2nc(-c3n[nH]c4ncccc34)c(F)cc2F)CCN1)C(F)(F)F (stereo not shown) [Compound 13] | – | – |
| – | – | > 1250 nM | CC(C)[C@@](C)(O)[C@@H]1CN(c2nc(-c3n[nH]c4ncccc34)c(F)cc2C#N)CCN1 [Compound 10] | – | – |
| < 50 nM | – | < 500 nM | CC(C)(F)C(C)(O)C1CN(c2nc(-c3n[nH]c4ncccc34)c(F)cc2F)CCN1 (stereo not shown) [Compound 12] | – | – |
| < 50 nM | < 1 nM | < 500 nM | CC(C)[C@@H](O)[C@@H]1CN(c2nc(-c3n[nH]c4ncccc34)c(F)cc2F)CCN1 [Compound 7] | – | – |
| < 50 nM | < 1 nM | < 2800 nM | OC(C1CC1)C1CN(c2nc(-c3n[nH]c4ncccc34)c(F)cc2Cl)CCN1 (stereo not shown) [Compound 31] | – | – |
| < 50 nM | < 1 nM | < 2800 nM | CCC(O)C1CN(c2nc(-c3n[nH]c4ncccc34)c(F)cc2Cl)CCN1 (stereo not shown) [Compound 19] | – | – |
| > 1250 nM | < 500 nM | > 1250 nM | CC(C)C(N)[C@H]1CCN(c2nc(-c3n[nH]c4ncccc34)c(C#N)cc2F)C1 (single isomer, unassigned) [Compound 36] | – | – |
| > 1250 nM | < 500 nM | > 1250 nM | CC(CO)[C@@](C)(O)[C@@H]1CN(c2nc(-c3n[nH]c4ncccc34)c(F)cc2Cl)CCN1 (stereo partly shown) [Compound 45] | – | – |
| < 10 nM | < 1 nM | < 500 nM | CC(C)(C)C(O)C1CN(c2nc(-c3n[nH]c4ncccc34)c(F)cc2F)CCN1 (stereo not shown) [Compound 27] | – | – |
| < 10 nM | < 1 nM | < 500 nM | CC(C)[C@@](C)(O)[C@@H]1CN(c2nc(-c3n[nH]c4ncccc34)c(F)cc2CO)CCN1 [Compound 44] | – | – |
| < 50 nM | < 1 nM | < 2800 nM | CCC(C)(O)C1CN(c2nc(-c3n[nH]c4ncccc34)c(F)cc2F)CCN1 (stereo not shown) [Compound 6] | – | – |
| < 500 nM | < 1 nM | < 500 nM | CC(C)(O)[C@@](C)(O)[C@@H]1CN(c2nc(-c3n[nH]c4ncccc34)c(F)cc2F)CCN1 [Compound 41] | – | – |
| < 50 nM | < 1 nM | < 2800 nM | CC(C)(O)[C@@](C)(O)[C@@H]1CN(c2nc(-c3n[nH]c4ncccc34)c(F)cc2Cl)CCN1 [Compound 42] | – | – |
| < 50 nM | < 1 nM | < 500 nM | CC(C)C(N)[C@H]1CCN(c2nc(-c3n[nH]c4ncccc34)c(F)cc2Cl)C1 (stereo partly shown) [Compound 23] | – | – |
| < 50 nM | < 1 nM | < 2800 nM | CC[C@@H](O)[C@@H]1CN(c2nc(-c3n[nH]c4ncccc34)c(F)cc2F)CCN1 [Compound 8] | – | – |
| < 500 nM | < 50 nM | > 1250 nM | CC[C@H](O)[C@@H]1CN(c2nc(-c3n[nH]c4ncccc34)c(F)cc2F)CCN1 [Compound 25] | – | – |
| < 50 nM | – | < 500 nM | CC(O)(C1CC1)C1CN(c2nc(-c3n[nH]c4ncccc34)c(F)cc2F)CCN1 (stereo not shown) [Compound 5] | – | – |
| < 10 nM | < 1 nM | < 500 nM | CC1(C)CC1(O)C1CN(c2nc(-c3n[nH]c4ncccc34)c(F)cc2F)CCN1 (stereo not shown) [Compound 2] | – | – |

| SMILES | Ki (PKC delta kinase) | Ki (PKC theta kinase; read-out: Ki PKC theta) | Ki (PKC alpha kinase; read-out: Ki PKC alpha) | Ki (PKC theta kinase; Ki PKC theta) | Ki (PKC alpha kinase; Ki PKC alpha) |
| --- | --- | --- | --- | --- | --- |
| CC(C)C(C)(O)C1CN(c2nc(C3N=Nc4ncccc43)c(F)cc2F)CCN1 (stereo not shown) [Compound 3] | < 500 nM | – | – | < 1 nM | < 2800 nM |
| CC(C)[C@@](C)(O)[C@@H]1CN(c2nc(-c3n[nH]c4ncccc34)c(F)cc2F)CCN1 [Compound 1, (R)-2-((S)-4-(3,5-difluoro-6-(1H-pyrazolo[3,4-b]pyridin-3-yl)pyridin-2-yl)piperazin-2-yl)-3-methylbutan-2-ol] | < 50 nM | – | – | < 1 nM | < 500 nM |
